The species entered for one assay is Bos taurus. Kind of assay: (§1) Inhibition of NADH oxidase in beef heart submitochondrial particles by end-window spectrophotometry.
A short description of assay [1]: as §1. On the set-up: species or system Bos taurus.

Structures are written as SMILES. Activity calls are given as the source filed them. The calls are words filed in the database; no cut-off is given here.

Consider `O=c1ccn([C@@H]2O[C@H](CO)[C@@H](O)[C@H]2O)c(=O)[nH]1`, for which the result in the assay filed under Bos taurus was inactive.

As usually defined, the IC50 is the concentration at which inhibition is half-maximal. Higher therefore signals weaker potency. In assay [1], `C=C1C[C@@H]2[C@]3(C)C(=C(O)C(=O)[C@@]2(C)[C@]2(C(=O)OC)C(=O)O[C@H](C)C(=O)[C@@]12C)C(C)(C)C(=O)C[C@@H]3O` [terretonin E] came in with an IC50 of 3900 nM.

`C=CC(C)(C)c1[nH]cnc1/C=C1/NC(=O)[C@H](C(C)C)NC1=O` [AURANTIAMINE]: in assay [1], the IC50 worked out at 15100 nM.

Consider `C=C1C[C@@H]2[C@@]3(C)C=CC(=O)C(C)(C)C3=C(O)C(=O)[C@@]2(C)[C@]2(C(=O)OC)C(=O)O[C@H](C)C(=O)[C@@]12C` [terretonin F], for which the midpoint of inhibition in assay [1], the IC50, lay at 2970 nM.

In the case of `CCCCCCCCCC[C@H](O)[C@H]1CC[C@H]([C@H]2CC[C@H]([C@H](O)CCCCCCCCCCCCC3C(=O)O[C@@H](C)[C@@H]3O)O2)O1` (stereo partly specified) [LAHERRADURIN], the IC50 in assay [1] was found to be 0.18 nM.

In turn, `C=C(C)[C@H]1Cc2c(ccc3c2O[C@@H]2COc4cc(OC)c(OC)cc4[C@@H]2C3=O)O1` [ROTENONE] registered an IC50 in assay [1] of 5.1 nM.

Values taken from ChEMBL document CHEMBL1152444, “Terretonins E and F, inhibitors of the mitochondrial respiratory chain from the marine-derived fungus Aspergillus insuetus (#)” (J Nat Prod, 2009).
